Measurements: patent publication US20130205659A1, “METHOD OF CONTROLLING FUSARIUM VIGULIFORME AND SOYBEAN SUDDEN DEATH SYNDROME USING THIABENDAZOLE” (SYNGENTA CROP PROTECTION LLC, priority 2010, published 2013)

System: Fusarium virguliforme
Assay: Growth chamber soybean sudden death syndrome seed treatment test, soil inoculated with F. virguliforme spores, visual disease severity rating
Format: in vivo
Conditions: for reduction in disease severity: seed treatment, versus control; for Sudden death syndrome Disease Severity (1-9): seed treatment (thiabendazole 5 g ai/100 kg seed; 2.5 g fludioxonil + 3.75 g mefenoxam/100 kg seed), averaged across five growth chamber runs, Njiti et al. scale
From the text: Soybean cultivars NK-529-J6 and NK-533-T4 where used for testing. Cultivar NK-529-J6 is labeled as partially resistant to SDS and cultivar NK-533-T4 is labeled susceptible to SDS (Syngenta Seeds, Minneapolis, Minn.). Thiabendazole fungicide seed treatment was applied to both cultivars at a rate of 5 g a.i./100 kg seed. A mefenoxam and fludioxonil combination fungicide seed treatment was also applied at a rate of 3.75 g a.i./100 kg seed and 2.5 g a.i./100kg seed, respectively. Three pathogenic isolates of F. virguliforme (Scherm et al., 1978) were used to inoculate grain sorghum (Sorghum bicolor (L.)) following the methods of Farris Neto et al. (2006). Isolates were grown on one third strength Difco Potato Dextrose Agar (PDA) growth medium. After 18 days, isolate growth on the PDA was divided into thirds and placed into a bag containing 2.27 kg of sorghum seed and allowed to incubate at room temperature for 15 days. Five experiments were conducted in a growth chamber. Each experiment was a randomized complete block design with eight replications. A 1:1 ratio of soil and sand medium was mixed together thoroughly, and steam sterilized at 121° C. for one hour. Upon sterilization of the soil medium 150 g of soil and 2.25 g of yellow cornmeal was weighed and mixed together for each conetainer. A spore suspension was prepared using 17 to 20 day old isolates of F. virguliforme grown on PDA media. Each isolate was aseptically flooded with sterilized, de-ionized water and scraped from the PDA plates causing the release of F. virguliforme spores. Each isolate was then strained through cheesecloth and mixed together to produce the spore suspension. Spore concentrations were determined using a hemacytometer, and concentrations were adjusted to produce 10 000 spores g soil^−1. After the spore concentration was determined the spore suspension was diluted to a volume of 13 ml of spore suspension per conetainer. The soil was then inoculated with the diluted spore suspension (Gongora-Canul and Leandro, 2007). Once the soil was inoculated, conetainers were filled level full with the inoculated soil, and then planted with two seeds of each variety by seed treatment combination (after emergence, thinned to one plant per conetainer) and placed in the growth chamber. Growth chambers were set at 17° C. for one week then changed to 24° C., and maintained for the remainder of the experiment. Growth chambers were set to 17° C. to help slow the germination of the soybean and therefore increase the probability for infection of F. virguliforme to take place (Gongora-Canul and Leandro, 2008). […]
Data collection for the growth chambers consisted of visual disease ratings of SDS symptom severity following the methods of Njiti et al. (1996). […] Disease incidence was recorded as a presence/absence rating.

c1ccc2[nH]c(-c3cscn3)nc2c1 [Thiabendazole, thiabendazole]
reduction in disease severity (soybean cultivar NK-533-T4): 35%
Sudden death syndrome Disease Severity (1-9) (soybean cultivar NK-S29-J6 (partially resistant to SDS)): 0.96
reduction in disease severity (soybean cultivar NK-S29-J6 (printed NK-29-J6)): 25%
Sudden death syndrome Disease Severity (1-9) (soybean cultivar NK-S33-T4 (SDS susceptible), LSD (0.05) 0.39): 1.08
